Experimental data reported in patent publication US20060229438A1, “Monoclonal antibody derived peptide inhibitors for mycobacterial dna gyrase” (priority 2002, published 2006).

B1: scFv:GyrA: engineered single chain antibody fragment of MsGyrA:C3, monovalent 30 kDa polypeptide, Seq. ID #2, encoded by pVNUHMscFv (protein)
scFv: AQVKLQQSGAELVRPGASVKLSCKASGYSFTVYYIYWVKQRPGQALEWIGEINPSNGGTNFNEKFKTKATLTVDKSTSTVYMQLSSLTSEDSAVYYCTRWGLRRGFAYWGQGTTVTVSSSGGGSGGGGSGGGGSDIELTQSPKSMSMSVGERVTLSCKASENVGTHVSWYQQRPEESPKLLIYGASNRYTGVPDRFTGSGSATDFTLTISNVQAEDLADYHCGQTYSYPFTFGLGTKLEIKRAAAGAPVPYPDPLEPRAA

Assays:
[1] = target: DNA gyrase from ciprofloxacin resistant M. smegmatis mc^2155 strain (Mycolicibacterium smegmatis, UniProt A0QNE0+P48354); format: biochemical
[2] = tested on: DNA gyrase from ofloxacin resistant clinical isolate of M. tuberculosis (ICC-222)

Molecule	susceptibility of the enzyme to ciprofloxacin [1]	IC50 ([1]; read-out: IC50 (no inhibition up to concentration)) [µM]	concentration that completely inhibited DNA gyrase [2] [nM]
O=C(O)c1cn(C2CC2)c2cc(N3CCNCC3)c(F)cc2c1=O [ciprofloxacin, reference compound]	showed resistance	> 1210	
B1			10
